Reference: patent US9573947B2, “Salt of pyrazoloquinoline derivative, and crystal thereof” (Eisai R&D Management Co., Ltd., priority 2013, dated 2017)

Assays:
cerebrospinal fluid cGMP = test: Effect on rodent cerebrospinal fluid cGMP; type: in vivo, Long-Evans (LE) male rats; details: LE rats, 10 mg/kg, 1 hour post-administration; relative to vehicle group; compound synthesized according to Reference Example 1
Method: Test compounds were administered to ICR male mice (CHARLES RIVER LABORATORIES JAPAN, INC.), Sprague-Dawley (SD) male rats (CHARLES RIVER LABORATORIES JAPAN, INC.) or Long-Evans (LE) male rats (Institute for Animal Reproduction (general incorporated foundation)), and then cerebrospinal fluid was collected under pentobarbital anesthesia and stored at −20° C. Measurement of cGMP in cerebrospinal fluid was performed according to the acetylation EIA procedure of cGMP EIA kit (GE Healthcare) or the non-acetylation procedure of cGMP EIA kit (Cayman Chemical).

hippocampal cGMP = test: Effect on rodent hippocampal cGMP; type: in vivo, LE male rats; details: LE rats, 10 mg/kg, 1 hour post-administration; relative to vehicle group; compound synthesized according to Reference Example 1
Method: Test compounds were administered to SD male rats (CHARLES RIVER LABORATORIES JAPAN, INC.) or LE male rats (Institute for Animal Reproduction (foundation)). Then a microwave treatment was performed under pentobarbital anesthesia, and the hippocampus were isolated, subjected to measurement of their wet weights, then frozen in liquid nitrogen and stored at −80° C. In the measurement of cGMP in the hippocampus, a 0.5 M perchloric acid/1 mM EDTA solution was added so that the wet weight would constitute 5% (w/v), and the mixture was homogenized. After the homogenization, the homogenate was centrifuged (10000 rpm, 15 min), and the supernatant was collected. The collected supernatant was neutralized with a 2 M potassium hydrogen carbonate solution and centrifuged (13000 rpm, 10 min) The cGMP concentration in the supernatant was measured according to the non-acetylation EIA procedure of cGMP EIA kit (GE Healthcare). The results were calculated using the following formula as an increase (C) in the amount of cGMP in the test compound-administered group (B) relative to the amount of cGMP in the vehicle-administered group (A). cGMP increase(C)=[(B)−(A)]/(A)×100(%) In the case of the compound (I) synthesized according to Reference Example 1, the cGMP increase was 58% at 1 hour post-administration of a dose of 10 mg/kg to LE rats.

[1] = Dissolution test in fasted state simulated intestinal fluid; type: physicochemical; details: fasted state simulated intestinal fluid pH 6.5, 37° C., 50 rpm, in terms of compound (I)
Method: Each of compound (I) (50 mg), the compound of Example 1 (30 mg) and the compound of Example 2 (30 mg) was filled into a hydroxypropyl methylcellulose capsule, together with an equal weight of lactose hydrate. A 708-DS from Agilent Technologies was equipped with small stirring paddles and small vessels, and used as a dissolution test apparatus. Each drug-filled capsule was added to 50 ml of fasted state simulated intestinal fluid (a phosphate buffer pH 6.5 containing 0.75 mM lecithin and 3 mM sodium taurocholate) which had been warmed to 37° C. The drug was dissolved by rotating the stirring paddle at a speed of 50 rpm. The dissolved solution was sampled over time and the drug concentrations were measured by HPLC. Such dissolution tests using fasted state simulated intestinal fluid are often used to evaluate the dissolution and absorption characteristics of drugs (e.g., Takano et al., “Oral absorption of poorly water-soluble drugs: computer simulation of fraction absorbed in humans from a miniscale dissolution test”, Pharm Res., vol. 23, pp. 1144-1156, 2006). The results were shown in Table 1 and the graph in FIG. 12.

[2] = Test on oral absorption characteristics in dogs; type: in vivo, beagle dogs; details: oral capsule, 100 mg in terms of the free form; for AREA UNDER PLASMA CONCENTRATION-TIME CURVE, MEAN: mean of 4 beagle dogs

COc1ncc(C)c(-c2ccc3c(c2)[nH]c(=O)c2cnn([C@H]4CCOC4)c23)c1C [compound (I), (S)-7-(2-methoxy-3,5-dimethylpyridin-4-yl)-1-(tetrahydrofuran-3-yl)-1H-pyrazolo[4,3-c]quinolin-4(5H)-one]
cGMP increase in cerebrospinal fluid (cerebrospinal fluid cGMP): 274% | cGMP increase in hippocampus (hippocampal cGMP): 58% | CONCENTRATION (dissolution) ([1]; 6 minutes): 100 ng/mL | CONCENTRATION (dissolution) ([1]; 10 minutes): 300 ng/mL | CONCENTRATION (dissolution) ([1]; 15 minutes): 1800 ng/mL | CONCENTRATION (dissolution) ([1]; 20 minutes): 3200 ng/mL | CONCENTRATION (dissolution) ([1]; 30 minutes): 4400 ng/mL | CONCENTRATION (dissolution) ([1]; 60 minutes): 5000 ng/mL | CONCENTRATION (dissolution) ([1]; 90 minutes): 5200 ng/mL | CONCENTRATION (dissolution) ([1]; 120 minutes): 5100 ng/mL | CONCENTRATION (dissolution) ([1]; 180 minutes): 5200 ng/mL | CONCENTRATION (dissolution) ([1]; 240 minutes): 5400 ng/mL | PLASMA CONCENTRATION ([2]; Dog 1, 0.25 hours): BQL | PLASMA CONCENTRATION ([2]; Dog 1, 0.5 hours): 5 ng/mL | PLASMA CONCENTRATION ([2]; Dog 1, 1 hour): 55 ng/mL | PLASMA CONCENTRATION ([2]; Dog 1, 2 hours): 94 ng/mL | PLASMA CONCENTRATION ([2]; Dog 1, 4 hours): 64 ng/mL | PLASMA CONCENTRATION ([2]; Dog 1, 6 hours): 45 ng/mL | PLASMA CONCENTRATION ([2]; Dog 1, 8 hours): 43 ng/mL | PLASMA CONCENTRATION ([2]; Dog 1, 24 hours): 234 ng/mL | AREA UNDER PLASMA CONCENTRATION-TIME CURVE ([2]; Dog 1): 2660 ng·h/mL | PLASMA CONCENTRATION ([2]; Dog 2, 0.25 hours): BQL | PLASMA CONCENTRATION ([2]; Dog 2, 0.5 hours): 29 ng/mL | PLASMA CONCENTRATION ([2]; Dog 2, 1 hour): 67 ng/mL | PLASMA CONCENTRATION ([2]; Dog 2, 2 hours): 61 ng/mL | PLASMA CONCENTRATION ([2]; Dog 2, 4 hours): 51 ng/mL | PLASMA CONCENTRATION ([2]; Dog 2, 6 hours): 45 ng/mL | PLASMA CONCENTRATION ([2]; Dog 2, 8 hours): 41 ng/mL | PLASMA CONCENTRATION ([2]; Dog 2, 24 hours): 7 ng/mL | AREA UNDER PLASMA CONCENTRATION-TIME CURVE ([2]; Dog 2): 770 ng·h/mL | PLASMA CONCENTRATION ([2]; Dog 3, 0.25 hours): BQL | PLASMA CONCENTRATION ([2]; Dog 3, 0.5 hours): 34 ng/mL | PLASMA CONCENTRATION ([2]; Dog 3, 1 hour): 142 ng/mL | PLASMA CONCENTRATION ([2]; Dog 3, 2 hours): 133 ng/mL | PLASMA CONCENTRATION ([2]; Dog 3, 4 hours): 104 ng/mL | PLASMA CONCENTRATION ([2]; Dog 3, 6 hours): 77 ng/mL | PLASMA CONCENTRATION ([2]; Dog 3, 24 hours): 9 ng/mL | AREA UNDER PLASMA CONCENTRATION-TIME CURVE ([2]; Dog 3): 1430 ng·h/mL | PLASMA CONCENTRATION ([2]; Dog 4, 0.25 hours): BQL | PLASMA CONCENTRATION ([2]; Dog 4, 0.5 hours): BQL | PLASMA CONCENTRATION ([2]; Dog 4, 1 hour): 17 ng/mL | PLASMA CONCENTRATION ([2]; Dog 4, 24 hours): 28 ng/mL | AREA UNDER PLASMA CONCENTRATION-TIME CURVE ([2]; Dog 4): 2680 ng·h/mL | concentration at 8 h ([2]; beagle, dog, plasma, po, 100 mg, Dog 3, 8 hours): 74 ng/mL | concentration at 2 h ([2]; beagle, dog, plasma, po, 100 mg, Dog 4, 2 hours): 227 ng/mL | concentration at 4 h ([2]; beagle, dog, plasma, po, 100 mg, Dog 4, 4 hours): 208 ng/mL | concentration at 6 h ([2]; beagle, dog, plasma, po, 100 mg, Dog 4, 6 hours): 164 ng/mL | concentration at 8 h ([2]; beagle, dog, plasma, po, 100 mg, Dog 4, 8 hours): 151 ng/mL | concentration at 24 h ([2]; beagle, dog, plasma, po, 100 mg, mean of dogs, 24 hours): 69 ng/mL | AREA UNDER PLASMA CONCENTRATION-TIME CURVE, MEAN [2]: 1880 ± 950 ng·h/mL | AREA UNDER PLASMA CONCENTRATION-TIME CURVE, MEAN ([2]; listed as COMPOUND (I)): 1880 ng·h/mL | PLASMA CONCENTRATION MEAN ([2]; mean of dogs, 0.5 hours): 23 ng/mL | PLASMA CONCENTRATION MEAN ([2]; mean of dogs, 1 hour): 70 ng/mL | PLASMA CONCENTRATION MEAN ([2]; mean of dogs, 2 hours): 129 ng/mL | PLASMA CONCENTRATION MEAN ([2]; mean of dogs, 4 hours): 106 ng/mL | PLASMA CONCENTRATION MEAN ([2]; mean of dogs, 6 hours): 83 ng/mL | PLASMA CONCENTRATION MEAN ([2]; mean of dogs, 8 hours): 77 ng/mL
